Starred links: 1 amine or outer side, 2 acyl side, 3 side chain; linkers in the order of their positions; H or OH if unused. Non-standard residues stand in square brackets, D forms with d. Residues, ends and D or L forms follow the SMILES beside them. Groups on a side chain read outwards from the residue. *: point of attachment. C20 diacid = O=C(O)CCCCCCCCCCCCCCCCCCC(=O)*; C18 diacid = O=C(O)CCCCCCCCCCCCCCCCC(=O)*; γGlu = O=C(O)[C@H](CCC(=O)[*:2])N[*:1]; εLys = N[C@@H](CCCCN[*:1])C(=O)[*:2]; Trx = NC[C@H]1CC[C@H](C(=O)O)CC1; AEEA = NCCOCCOCC(=O)O; Aib = CC(C)(N)C(=O)O
Assays:
mouse GIP receptor = target: T1, mouse GIP receptor (Mus musculus, UniProt Q0P543); test: cell-based
T1 sequence (Q0P543 19-460): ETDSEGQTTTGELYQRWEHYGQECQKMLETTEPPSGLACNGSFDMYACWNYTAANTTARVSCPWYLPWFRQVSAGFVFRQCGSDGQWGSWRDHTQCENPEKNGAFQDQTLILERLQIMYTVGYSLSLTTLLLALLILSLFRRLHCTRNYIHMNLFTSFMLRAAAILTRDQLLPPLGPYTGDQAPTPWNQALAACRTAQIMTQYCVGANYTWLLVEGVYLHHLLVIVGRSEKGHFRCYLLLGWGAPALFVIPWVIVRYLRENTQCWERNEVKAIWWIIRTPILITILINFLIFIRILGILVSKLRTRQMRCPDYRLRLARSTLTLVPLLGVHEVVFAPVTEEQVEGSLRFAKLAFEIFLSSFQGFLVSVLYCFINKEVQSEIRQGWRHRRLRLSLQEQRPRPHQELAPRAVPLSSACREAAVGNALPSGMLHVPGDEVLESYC
Method: (§1) The in vitro functional potency is the measure of target receptor activation in a whole cell assay.
(§2) In vitro functional potency was determined by measuring the response of the target receptor in a reporter gene assay in individual cell lines. […] When the respective receptor is activated, it results in the production of cAMP, which in turn results in expression of the luciferase protein. When assay incubation is completed, luciferase substrate (luciferin) is added resulting in the enzymatic conversion of luciferin to oxyluciferin and producing bioluminescence. The luminescence is measured as the readout for the assay.
(§3) The cells lines used in these assays were BHK cells with BHKTS13 as a parent cell line. The cell lines were derived from a clone containing the CRE luciferase element and were established by further transfection with the respective receptor to obtain the relevant cell line.
(§4) The cells were cultured at 37° C. with 5% CO2 in Cell Culture Medium. They were aliquoted and stored in liquid nitrogen. The cells were kept in continuous culture and were seeded out the day before each assay.
(§5) GLP-1R and GcgR Cell Culture Medium consisted of DMEM medium with 10% FBS, 500 μg/mL G418, and 300 μg/mL hygromycin. GIPR Cell Culture Medium consisted of DMEM medium with 10% FBS, 400 μg/mL G418, and 300 μg/mL hygromycin. Assay Buffer consisted of DMEM w/o phenol red, 10 mM Hepes, 1×Glutamax, 1% ovalbumin, and 0.1% Pluronic F-68 with the addition of HSA at twice the final assay concentration.
(§6) • 1) Cells were plated at 5000 cells/well and incubated overnight in the assay plate. • 2) Cells were washed once in DPBS. • 3) Stocks of the test compounds and reference compounds in concentrations ranging from 100-300 μM were diluted 1:150 in Assay Buffer. Compounds were then diluted 1:10 in column 1 of a 96 deep well dilution plate and then carried across the row creating a 3.5 fold, 12 point dilution curve. • 4) Assay Buffer (50 μl aliquot) with or without HSA was added to each well in the assay plate. • 5) A 50 μl aliquot of compound or blank was transferred from the dilution plate to the assay plate containing the Assay Buffer with or without HSA. • 6) The assay plate was incubated for 3 h in a 5% CO2 incubator at 37° C. 7) The cells were washed once with DPBS. • 8) A 100 μl aliquot of DPBS was added to each well of the assay plate. • 9) A 100 μl aliquot of steadylite plus reagent (light sensitive) was added to each well of the assay plate. • 10) Each assay plate was covered with aluminum foil to protect it from light and shaken at 250 RPM for 30 min at room temperature. • 11) Each assay plate was read in a microtiter plate reader.
(§7) The data from the microtiter plate reader was first regressed in an Excel in order to calculate the x-axis, log scale concentrations based on the individual test compound's stock concentration and the dilutions of the assay. […] The software performs a non-linear regression (log(agonist) vs response). A minimum of two replicates was measured for each sample. The reported values are averages of the replicates.

human glucagon receptor = human glucagon receptor (Homo sapiens, UniProt P47871); test: cell-based
human GLP-1 receptor = human GLP-1 receptor (Homo sapiens, UniProt P43220); test: cell-based; conditions: hGLP-1R
Method: as §1, §2, §3, §4, §5, §6, §7

mouse GLP-1 receptor = target: T2, mouse GLP-1 receptor (Mus musculus, UniProt O35659)
T2 sequence (O35659 22-463): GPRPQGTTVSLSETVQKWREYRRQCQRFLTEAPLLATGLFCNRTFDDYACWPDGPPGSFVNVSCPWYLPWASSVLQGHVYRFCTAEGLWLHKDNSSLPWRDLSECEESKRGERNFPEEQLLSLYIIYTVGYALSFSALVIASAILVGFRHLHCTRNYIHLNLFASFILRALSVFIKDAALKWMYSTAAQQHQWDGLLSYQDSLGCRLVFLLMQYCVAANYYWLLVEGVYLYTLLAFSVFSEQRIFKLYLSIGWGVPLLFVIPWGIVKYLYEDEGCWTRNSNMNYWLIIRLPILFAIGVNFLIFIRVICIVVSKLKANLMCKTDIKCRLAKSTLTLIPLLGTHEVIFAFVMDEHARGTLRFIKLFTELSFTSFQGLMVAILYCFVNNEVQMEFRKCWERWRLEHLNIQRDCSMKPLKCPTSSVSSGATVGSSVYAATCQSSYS
Method: as §1, §2, §3, §4, §5, §6, §7

Sequence of human GLP-1 receptor (P43220 24-463): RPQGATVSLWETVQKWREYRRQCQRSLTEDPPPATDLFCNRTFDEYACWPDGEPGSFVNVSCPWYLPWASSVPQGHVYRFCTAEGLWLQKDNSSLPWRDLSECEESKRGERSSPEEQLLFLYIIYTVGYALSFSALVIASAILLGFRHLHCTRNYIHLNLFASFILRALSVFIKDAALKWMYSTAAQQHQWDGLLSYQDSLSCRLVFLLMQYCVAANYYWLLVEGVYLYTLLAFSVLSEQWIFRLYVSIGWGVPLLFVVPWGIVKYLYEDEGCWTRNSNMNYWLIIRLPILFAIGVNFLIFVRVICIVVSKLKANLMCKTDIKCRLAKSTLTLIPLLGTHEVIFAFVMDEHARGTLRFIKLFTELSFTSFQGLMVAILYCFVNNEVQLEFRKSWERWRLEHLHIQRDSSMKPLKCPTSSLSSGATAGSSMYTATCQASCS
Sequence of human glucagon receptor (P47871 26-477): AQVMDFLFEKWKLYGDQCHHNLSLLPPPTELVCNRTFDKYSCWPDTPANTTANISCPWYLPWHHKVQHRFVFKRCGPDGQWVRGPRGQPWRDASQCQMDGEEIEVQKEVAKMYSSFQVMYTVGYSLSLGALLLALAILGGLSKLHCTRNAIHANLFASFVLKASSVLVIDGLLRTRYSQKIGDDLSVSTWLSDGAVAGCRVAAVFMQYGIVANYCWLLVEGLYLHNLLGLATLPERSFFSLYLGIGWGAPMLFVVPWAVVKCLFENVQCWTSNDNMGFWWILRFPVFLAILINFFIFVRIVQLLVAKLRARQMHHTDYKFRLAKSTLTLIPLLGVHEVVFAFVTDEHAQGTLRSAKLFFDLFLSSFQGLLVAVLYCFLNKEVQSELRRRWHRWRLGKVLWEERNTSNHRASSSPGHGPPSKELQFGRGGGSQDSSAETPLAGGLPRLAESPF

CC[C@H](C)[C@H](NC(=O)[C@H](CO)NC(=O)[C@H](Cc1ccc(O)cc1)NC(=O)[C@H](CC(=O)O)NC(=O)[C@H](CO)NC(=O)[C@@H](NC(=O)[C@H](Cc1ccccc1)NC(=O)[C@@H](NC(=O)CNC(=O)[C@H](CCC(=O)O)NC(=O)C(C)(C)NC(=O)[C@@H](N)Cc1ccc(O)cc1)[C@@H](C)O)[C@@H](C)O)C(=O)N[C@@H](Cc1ccc(O)cc1)C(=O)N[C@@H](CC(C)C)C(=O)N[C@@H](CCC(=O)O)C(=O)N[C@@H](CCCCN)C(=O)N[C@@H](CCCCNC(=O)[C@@H](N)CCCCNC(=O)[C@@H](N)CCCCNC(=O)CC[C@H](NC(=O)CCCCCCCCCCCCCCCCCCC(=O)O)C(=O)O)C(=O)N[C@@H](C)C(=O)N[C@@H](C)C(=O)NC(C)(C)C(=O)N[C@@H](CCC(=O)O)C(=O)N[C@@H](Cc1ccccc1)C(=O)N[C@H](C(=O)N[C@@H](CC(N)=O)C(=O)N[C@@H](Cc1c[nH]c2ccccc12)C(=O)N[C@@H](CC(C)C)C(=O)N[C@@H](CC(C)C)C(=O)N[C@@H](C)C(=O)NCC(=O)NCC(=O)N1CCC[C@H]1C(=O)N[C@@H](CO)C(=O)N[C@@H](CO)C(=O)NCC(=O)N[C@@H](C)C(=O)N1CCC[C@H]1C(=O)N1CCC[C@H]1C(=O)N1CCC[C@H]1C(=O)N[C@@H](CO)C(N)=O)C(C)C [Compound 31] (H-Y[Aib]EGTFTSDYSIYLEKK([εLys-εLys-γGlu-C20 diacid])AA[Aib]EFVNWLLAGGPSSGAPPPS-NH2; N-terminus assumed)
EC50 (mouse GIP receptor): 0.0134 nM
EC50 (human glucagon receptor): 9.6 nM
EC50 (human GLP-1 receptor; CRE Luc 0% HSA EC50, 0% HSA): 0.0019 nM
EC50 (human GLP-1 receptor; CRE Luc 1% HSA EC50, 1% HSA): 0.0543 nM
EC50 (mouse GLP-1 receptor): 0.0013 nM

CC[C@H](C)[C@H](NC(=O)[C@H](CO)NC(=O)[C@H](Cc1ccc(O)cc1)NC(=O)[C@H](CC(=O)O)NC(=O)[C@H](CO)NC(=O)[C@@H](NC(=O)[C@H](Cc1ccccc1)NC(=O)[C@@H](NC(=O)CNC(=O)[C@H](CCC(=O)O)NC(=O)C(C)(C)NC(=O)[C@@H](N)Cc1ccc(O)cc1)[C@@H](C)O)[C@@H](C)O)C(=O)N[C@@H](Cc1ccc(O)cc1)C(=O)N[C@@H](CC(C)C)C(=O)N[C@@H](CC(=O)O)C(=O)N[C@@H](CCCCN)C(=O)N[C@@H](CCC(N)=O)C(=O)N[C@@H](C)C(=O)N[C@@H](C)C(=O)NC(C)(C)C(=O)N[C@@H](CCCCNC(=O)[C@@H](N)CCCCNC(=O)[C@@H](N)CCCCNC(=O)CC[C@H](NC(=O)CCCCCCCCCCCCCCCCCCC(=O)O)C(=O)O)C(=O)N[C@@H](Cc1ccccc1)C(=O)N[C@H](C(=O)N[C@@H](CC(N)=O)C(=O)N[C@@H](Cc1c[nH]c2ccccc12)C(=O)N[C@@H](CC(C)C)C(=O)N[C@@H](CC(C)C)C(=O)N[C@@H](C)C(=O)NCC(=O)NCC(=O)N1CCC[C@H]1C(=O)N[C@@H](CO)C(=O)N[C@@H](CO)C(=O)NCC(=O)N[C@@H](C)C(=O)N1CCC[C@H]1C(=O)N1CCC[C@H]1C(=O)N1CCC[C@H]1C(=O)N[C@@H](CO)C(N)=O)C(C)C [Compound 13] (H-Y[Aib]EGTFTSDYSIYLDKQAA[Aib]K([εLys-εLys-γGlu-C20 diacid])FVNWLLAGGPSSGAPPPS-NH2; N-terminus assumed)
EC50 (mouse GIP receptor): 0.057 nM
EC50 (human glucagon receptor): > 10 nM
EC50 (human GLP-1 receptor; CRE Luc 0% HSA EC50, 0% HSA): 0.0124 nM
EC50 (human GLP-1 receptor; CRE Luc 1% HSA EC50, 1% HSA): 0.103 nM
EC50 (mouse GLP-1 receptor): 0.0054 nM

CC[C@H](C)[C@H](NC(=O)[C@H](CO)NC(=O)[C@H](Cc1ccc(O)cc1)NC(=O)[C@H](CC(=O)O)NC(=O)[C@H](CO)NC(=O)[C@@H](NC(=O)[C@H](Cc1ccccc1)NC(=O)[C@@H](NC(=O)CNC(=O)[C@H](CCC(=O)O)NC(=O)C(C)(C)NC(=O)[C@@H](N)Cc1ccc(O)cc1)[C@@H](C)O)[C@@H](C)O)C(=O)N[C@@H](Cc1ccc(O)cc1)C(=O)N[C@@H](CC(C)C)C(=O)N[C@@H](CCC(=O)O)C(=O)N[C@@H](CCCCNC(=O)COCCOCCNC(=O)COCCOCCNC(=O)CC[C@H](NC(=O)CCCCCCCCCCCCCCCCCCC(=O)O)C(=O)O)C(=O)N[C@@H](CCC(N)=O)C(=O)N[C@@H](C)C(=O)N[C@@H](C)C(=O)NC(C)(C)C(=O)N[C@@H](CCC(=O)O)C(=O)N[C@@H](Cc1ccccc1)C(=O)N[C@H](C(=O)N[C@@H](CC(N)=O)C(=O)N[C@@H](Cc1c[nH]c2ccccc12)C(=O)N[C@@H](CC(C)C)C(=O)N[C@@H](CC(C)C)C(=O)N[C@@H](C)C(=O)NCC(=O)NCC(=O)N1CCC[C@H]1C(=O)N[C@@H](CO)C(=O)N[C@@H](CO)C(=O)NCC(=O)N[C@@H](C)C(=O)N1CCC[C@H]1C(=O)N1CCC[C@H]1C(=O)N1CCC[C@H]1C(=O)N[C@@H](CO)C(N)=O)C(C)C [Compound 29] (H-Y[Aib]EGTFTSDYSIYLEK([AEEA-AEEA-γGlu-C20 diacid])QAA[Aib]EFVNWLLAGGPSSGAPPPS-NH2; N-terminus assumed)
EC50 (mouse GIP receptor): 0.051 nM
EC50 (human glucagon receptor): > 10 nM
EC50 (human GLP-1 receptor; CRE Luc 0% HSA EC50, 0% HSA): 0.0062 nM
EC50 (human GLP-1 receptor; CRE Luc 1% HSA EC50, 1% HSA): 0.429 nM
EC50 (mouse GLP-1 receptor): 0.0018 nM

CC[C@H](C)[C@H](NC(=O)[C@H](CO)NC(=O)[C@H](Cc1ccc(O)cc1)NC(=O)[C@H](CC(=O)O)NC(=O)[C@H](CO)NC(=O)[C@@H](NC(=O)[C@H](Cc1ccccc1)NC(=O)[C@@H](NC(=O)CNC(=O)[C@H](CCC(=O)O)NC(=O)C(C)(C)NC(=O)[C@@H](N)Cc1ccc(O)cc1)[C@@H](C)O)[C@@H](C)O)C(=O)N[C@@H](Cc1ccc(O)cc1)C(=O)N[C@@H](CC(C)C)C(=O)N[C@@H](CCC(=O)O)C(=O)N[C@@H](CCCCN)C(=O)N[C@@H](CCCCNC(=O)[C@@H](N)CCCCNC(=O)[C@@H](N)CCCCNC(=O)CC[C@H](NC(=O)[C@H]1CC[C@H](CNC(=O)CCCCCCCCCCCCCCCCCCC(=O)O)CC1)C(=O)O)C(=O)N[C@@H](C)C(=O)N[C@@H](C)C(=O)NC(C)(C)C(=O)N[C@@H](CCC(=O)O)C(=O)N[C@@H](Cc1ccccc1)C(=O)N[C@H](C(=O)N[C@@H](CCC(N)=O)C(=O)N[C@@H](Cc1c[nH]c2ccccc12)C(=O)N[C@@H](CC(C)C)C(=O)N[C@@H](CC(C)C)C(=O)N[C@@H](CCC(=O)O)C(=O)NCC(=O)NCC(=O)N1CCC[C@H]1C(=O)N[C@@H](CO)C(=O)N[C@@H](CO)C(=O)NCC(=O)N[C@@H](C)C(=O)N1CCC[C@H]1C(=O)N1CCC[C@H]1C(=O)N1CCC[C@H]1C(=O)N[C@@H](CO)C(N)=O)C(C)C [Compound 34] (H-Y[Aib]EGTFTSDYSIYLEKK([εLys-εLys-γGlu-Trx-C20 diacid])AA[Aib]EFVQWLLEGGPSSGAPPPS-NH2; N-terminus assumed)
EC50 (mouse GIP receptor): 0.0195 nM
EC50 (human GLP-1 receptor; CRE Luc 0% HSA EC50, 0% HSA): 0.0032 nM
EC50 (human GLP-1 receptor; CRE Luc 1% HSA EC50, 1% HSA): 0.379 nM
EC50 (mouse GLP-1 receptor): 0.0018 nM

CC[C@H](C)[C@H](NC(=O)[C@H](CO)NC(=O)[C@@H](NC(=O)[C@H](CC(=O)O)NC(=O)[C@H](CO)NC(=O)[C@@H](NC(=O)[C@H](Cc1ccccc1)NC(=O)[C@@H](NC(=O)CNC(=O)[C@H](CCC(=O)O)NC(=O)C(C)(C)NC(=O)[C@@H](N)Cc1c[nH]cn1)[C@@H](C)O)[C@@H](C)O)C(C)C)C(=O)N[C@@H](Cc1ccc(O)cc1)C(=O)N[C@@H](CC(C)C)C(=O)N[C@@H](CC(=O)O)C(=O)N[C@@H](CCCCN)C(=O)N[C@@H](CCC(N)=O)C(=O)N[C@@H](C)C(=O)N[C@@H](C)C(=O)NC(C)(C)C(=O)N[C@@H](CCCCNC(=O)[C@@H](N)CCCCNC(=O)[C@@H](N)CCCCNC(=O)CC[C@H](NC(=O)CCCCCCCCCCCCCCCCC(=O)O)C(=O)O)C(=O)N[C@@H](Cc1ccccc1)C(=O)N[C@H](C(=O)N[C@@H](CC(N)=O)C(=O)N[C@@H](Cc1c[nH]c2ccccc12)C(=O)N[C@@H](CC(C)C)C(=O)N[C@@H](CC(C)C)C(=O)N[C@@H](C)C(=O)NCC(=O)NCC(=O)N1CCC[C@H]1C(=O)N[C@@H](CO)C(=O)N[C@@H](CO)C(=O)NCC(=O)N[C@@H](C)C(=O)N1CCC[C@H]1C(=O)N1CCC[C@H]1C(=O)N1CCC[C@H]1C(=O)N[C@@H](CO)C(N)=O)C(C)C [Compound 12] (H-H[Aib]EGTFTSDVSIYLDKQAA[Aib]K([εLys-εLys-γGlu-C18 diacid])FVNWLLAGGPSSGAPPPS-NH2; N-terminus assumed)
EC50 (mouse GIP receptor): > 10 nM
EC50 (human GLP-1 receptor; CRE Luc 0% HSA EC50, 0% HSA): 0.0029 nM
EC50 (mouse GLP-1 receptor): 0.0022 nM

— patent US20230346961A1, “GLP-1 AND GIP RECEPTOR CO-AGONISTS” (Novo Nordisk A/S, priority 2020, published 2023)
